Laboratory results taken from PMC5669199, “CM352 Reduces Brain Damage and Improves Functional Recovery in a Rat Model of Intracerebral Hemorrhage” (Journal of the American Heart Association: Cardiovascular …, 2017).

How the values were obtained:
[1] = Pharmacokinetics of CM352 in rats after intravenous administration; format: in vivo; settings: rat, 1 mg/kg intravenous
Experimental: CM352 solutions were prepared by dissolving the solid in saline. A drug dosage of 1 mg/kg was administered as a single intravenous injection in the femoral vein. Blood was collected into citrated tubes, and plasma was obtained by 2‐step centrifugation: first at 600 g for 10 minutes and then at 18 000 g for 2 minutes. Plasma samples were stored at −80°C until analysis. CM352 was measured in plasma samples using a Xevo‐TQ MS triple quadrupole mass spectrometer with an electrospray ionization source and an Acquity UPLC (Waters, Manchester, UK) as previously reported.20 Briefly, after chromatographic separation, the compound was detected using multiple reaction monitoring. Quantification was achieved by external calibration using matrix‐matched standards prepared by adding the appropriate volume of diluted solutions of the compound (in methanol/water 50:50, v:v) to aliquots of 50 μL blank plasma. Pharmacokinetic parameters were obtained by fitting the blood concentration‐time data to a bicompartmental model with the WinNonlin software (Pharsight, Mountain View, CA).

[2] = tested on: tissue‐type plasminogen activator–induced fibrinolysis in rat whole blood; test: Whole blood clot formation and lysis assay (ROTEM thromboelastometry), rat blood; format: biochemical
Experimental: Citrated blood samples from (n=4) rats (Sprague Dawley) and (n=16) mice ([…], Harlan Iberica) were assayed with a ROTEM analyzer (Pentapharm GmbH, Munich, Germany) as previously described.20 In a prewarmed cuvette and holder we pipetted 1 μL tissue-type plasminogen activator (150 000 U/mL), 20 μL Start-tem reagent (Pentapharm GmbH), 20 μL In-tem reagent (Pentapharm GmbH), 3 μL DMSO (SIGMA) or test compounds in DMSO, and 300 μL prewarmed citrated blood. The cup holder containing the sample mixture was placed immediately on the appropriate channel. Measurements were recorded for 60 minutes to allow clot formation and lysis, and results are expressed as effective concentration to delay lysis time by 50%.

MMP‐12 = biological target: T1, MMP‐12 (Homo sapiens, UniProt P39900); test: MMP enzyme activity assay; format: biochemical; settings: read-out: MMP Inhibitory Activity (IC50), MMP‐12
T1 construct: GenScript (contract testing)
Experimental: […]. Protease stock solutions (10 mmol/L) were diluted with assay buffer to make final test solutions containing no more than 2.0% DMSO. The samples were dispensed into plates; substrate was added and read with PHERAstar PLUS (BMG Labtech, Ortenberg, Germany) plate reader.

[3] = tested on: rat model of collagenase‐induced ICH; test: Cylinder test (laterality index) in ICH rat model; format: in vivo; settings: 24 hours and 14 days, all P<0.01 vs control
Experimental: Following STAIR criteria, animal models must show neurological and functional deficits in line with the produced lesion. The model of collagenase‐induced hemorrhage primarily damages the striatum, producing a small forelimb paresis contralateral to the lesion. Sensorimotor deficits after ischemic insult were assessed using the cylinder test, as previously described.23 This test evaluates limb asymmetry during the exploratory activity. Each animal was put in a cylinder with a 20‐cm‐diameter transparent base. A video camera was located under this transparent cylinder for recording the vertical exploratory movements of the animal with its anterior limbs for 2 to 10 minutes, depending on movement grade. For image recording and analysis, VirtulDub software was used. Analyzed behaviors were the numbers of times that the animal touched the cylinder wall and independent use of each limb in contact with the cylinder wall in each upward movement. The laterality index was calculated (the number of times that the animal touched the cylinder with the right leg during the ascendant movement by the number of times that the animals touched with each leg). […] An experienced investigator, blind to treatment and neuroimaging data, analyzed the behavioral tests.

[4] = tested on: rat model of collagenase‐induced ICH; test: Bederson scale in ICH rat model; format: in vivo
Experimental: On the other hand, neurological deficit was evaluated with the Bederson scale,24 ranging from 0 (asymptomatic) to 8 (severe deficit), which included the following items: spontaneous movement, spontaneous rotation, spontaneous flexion of the contralateral forelimb, edge detection, turn after tail suspension, reflection of protection. Behavioral studies were performed at baseline (before surgery) and at 24 hours and 14 days after ICH during the darkness cycle. An experienced investigator, blind to treatment and neuroimaging data, analyzed the behavioral tests.

interleukin‐6 = test: Plasma interleukin‐6 ELISA after ICH; format: in vivo, rat; settings: 1 mg/kg iv 1 hour after collagenase; 3 hours, P<0.05 vs control
Experimental: (§1) Blood samples (0.5 mL) were drawn from the tail vein before surgery, immediately after surgery, and at 1 hour, 3 hours, 24 hours, and 14 days. Citrate or EDTA plasma was obtained by centrifugation, and samples were stored at −80°C. Enzyme‐linked immunosorbent assay was used to measure interleukin‐6 (IL‐6, ref. KRC0061, Life Technologies, Thermo Fisher Scientific, Waltham, MA), cellular fibronectin (ref. MBS007311, MyBioSource, San Diego, CA), and thrombin‐antithrombin complex (Enzygnost TAT, ref. OWMG15, Siemens Healthcare, Erlangen, Germany) in plasma, as biomarkers of inflammation, cellular damage, and hypercoagulability, respectively. The intra‐assay and interassay coefficients of variation for all molecular markers were <10%.

[5] = tested on: thrombin‐antithrombin complex; test: Plasma thrombin‐antithrombin complex ELISA after ICH; format: in vivo, rat; settings: 1 mg/kg iv after ICH; data not shown
Experimental: as §1

[6] = Prothrombin time in plasma after ICH; format: in vivo, rat; settings: percentage of the standard value, n=3
Experimental: Prothrombin time (PT) and activated partial thromboplastin time (aPTT) were measured with STA‐Neoplastin R and PTT reagents (STA‐Compact, Stago, Barcelona, Spain). PT results were expressed as percentage of the standard value, and aPTT results were expressed in seconds.

[7] = tested on: mouse model of tail bleeding; set-up: method as in PMID 25686022; settings: CM352 0.01 mg/kg; cited from earlier work
[8] = tested on: wide panel of metalloenzymes, including cathepsins, caspases, kalikreins, and neutrophil proteases; set-up: method as in PMID 25686022; settings: cited from earlier work

T1 sequence (P39900 106-470, species assumed): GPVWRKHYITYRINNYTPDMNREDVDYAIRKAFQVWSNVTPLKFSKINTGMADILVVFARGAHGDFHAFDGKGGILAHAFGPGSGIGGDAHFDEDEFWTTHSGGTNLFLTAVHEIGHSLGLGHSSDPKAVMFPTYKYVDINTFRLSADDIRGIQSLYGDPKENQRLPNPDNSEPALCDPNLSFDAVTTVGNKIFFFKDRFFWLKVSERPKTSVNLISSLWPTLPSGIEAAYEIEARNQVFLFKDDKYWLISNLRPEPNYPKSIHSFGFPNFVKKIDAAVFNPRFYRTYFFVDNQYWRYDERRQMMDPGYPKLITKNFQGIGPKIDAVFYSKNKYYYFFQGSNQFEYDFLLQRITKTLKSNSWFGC

## CNC(=O)c1ccc(Oc2ccc(S(=O)(=O)[C@]3(C(=O)NO)CCC4(CCNCC4)C3)cc2)cc1 [CM352, 4‐[4‐[[(3R)‐3‐(Hydroxycarbamoyl)‐8‐azaspiro[4.5]decan‐3‐yl]sulfonyl]phenoxy]‐N‐methylbenzamide]
[1]; brain, n=3, read-out: Brain/plasma ratio
  Kp: 0.0193
[1]; plasma, n=3
  half-life: 65.4 min
[1]; plasma, n=3, read-out: Cmax (maximal plasma concentration)
  Cmax: 7.8 µM
[1]; plasma, n=3, read-out: Norm. Cl (normalized clearance) (converted)
  clearance: 7 mL/min/kg
[1]; plasma, n=3, read-out: Norm. Vz (normalized volume of distribution)
  Vd: 0.66 L/kg
[1]
  maximal plasma concentration: 7.8 µmol/L
  time CM352 remains in blood above 10 nmol/L: 8 h
[2]; rat whole blood, tPA‐induced fibrinolysis, ROTEM, read-out: effective concentration to delay lysis time by 50%
  EC50: 3.7 µM
[2]; thromboelastometry assay, whole blood
  coagulation activation and clot firmness: without changes in coagulation activation and clot firmness
MMP‐12
  IC50: 7.6 nM
[3]; 1 mg/kg 3 hours after collagenase
  sensorimotor recovery (laterality index): better sensorimotor recovery
[3]; 1 mg/kg iv 1 hour after collagenase
  sensorimotor recovery (laterality index): better sensorimotor recovery
[4]; 1 mg/kg 3 hours after collagenase, 24 hours (P<0.01) and day 14 (P<0.05) vs control
  neurological deficit (Bederson scale): better neurological function recovery
[4]; 1 mg/kg iv 1 hour after collagenase, 24 hours, P<0.01 vs control
  neurological deficit (Bederson scale): better neurological functional recovery
[4]; 1 mg/kg iv 1 hour after collagenase, day 14, P<0.01 vs control
  neurological deficit (Bederson scale): beneficial effect of CM352 also being very noticeable
interleukin‐6
  circulating IL‐6 levels: significant reduction
[5]
  thrombin‐antithrombin complex levels versus control: no differences
[6]; 3 H
  PT: 62.0±2.6%
[6]; 5 H
  PT: 63.7±4.0%
[6]; 24 H
  PT: 65.1±7.6%
[6]; Basal
  PT: 62.7±5.1%
[7]
  antihemorrhagic efficiency: more potent agent
[8]
  off‐target effect on metalloenzyme panel: no significant effect
